Values joined by “and” are separate entries in the source; they are usually repeats but may differ in a detail not shown here. Equal entries are not always repeated. Where two headings read alike, the source gives them in different places.
Assays:
[1] = system: L18-MDP-induced TNFα release; experiment: L18-MDP-induced cytokine release (TNFα, IL1β, IL-6, IL-8, IL-10) in human PBMCs; type: cell-based; details: Homo sapiens, PBMC
Experimental: PBMCs were isolated from leukodepletion filter from platelet aphaeresis supplied by National Health System Blood and Transplant—NHSBT Apheresed at NHBST.
Before treatment with compound or vehicle, THP1 cells, human and rat PBMCs were counted using Vi-Cell cell counter (Invitrogen) and adjusted to a final cell density of […] using complete growth medium. Cells or whole blood were treated with vehicle (0.1% DMSO) or fixed concentrations of compound up to 1 μM in half log unit increments and incubated for the time period indicated in the figure.
Where the assessment of cytokines was performed, L18-MDP was added to the cell culture media (1 μg/ml) or to the rat blood samples (100 ng/ml) and samples were incubated for up to 4 h. […] Samples were them spun down at 1000 g and the cell culture supernatant, plasma or serum were collected for cytokines assessment, while cell pellets were used for RIPK2 and/or cIAP1, cIAP2, and XIAP levels analysis via immunoblotting.
(§1) Cytokine measurement assay: Cytokine levels were measured in rat plasma or rat PBMCs cell culture supernatants using rat V-Plex TNFα, in human plasma or human PBMCs cell culture supernatants with either TNFα tissue culture or 7-plex kit. Rat serum and tissues samples from the in vivo L18-MDP acute inflammation model were analyzed using the rat TNFα, Il-6 and IL-8 U-Plex kits. All kits provided by Meso Scale Discovery (MSD). Levels of cytokines spontaneously released from human colon biopsies cell culture supernatants were measured using Human IL-1 beta/IL-1F2 DuoSet ELISA (Bio-techne), Human IL-6 ELISA (Immunotools) and Human TNF-alpha DuoSet ELISA (Bio-techne). All samples were processed accordingly to the manufacturer’s instructions. The MSD plates were analyzed using the MSD sector imager 6000 plate reader and cytokines concentration (pg/ml) was obtained by using the MSD DISCOVERY WORKBENCH software version 4.0.12.1
In vitro experimental data were analyzed using a 4-parameter logistic equation in GraphPad Prism 5.0.4. to generate an estimate of the half-maximal concentration and maximal degradation, DC50 and Dmax value respectively, for concentration-degradation relationships. Cytokine levels were analyzed in a similar manner to yield IC50 and Imax values. […] Where analysis to a sigmoidal relationship was not possible, the data points are shown as mean ± s.e.m.

RIPK2 = experiment: In vivo RIPK2 degradation in rat (PBMCs isolated from blood, Western blot); details: for RIPK2: fig 5e, individual rats 6-10, time 0 = 100; for RIPK2 (time 0 = 100): rats 1-4, fig 5c
Experimental: (§2) Rat PK/PD studies: On arrival, all rats were housed in a plastic solid bottom cage in groups of 2–3 with access to food and water ad libitum and under a 12 h light–dark cycle. Male CD or Wistar Han rats (7–9 weeks old, Charles River UK Ltd.) were randomly allocated to treatment groups upon arrival. Female CD rats (7–8 weeks old on arrival, Charles River Ltd.) were placed into groups using a randomization schedule based on body weight prior to the study start. All animals were acclimatized for a minimum of one week prior to the experiment commencing.
Subcutaneous PROTAC solution formulations were prepared on the day of dosing as outlined below and filtered through a 0.22 µm Millex PVDF filter (Millipore) prior to PROTAC administration. PROTAC 4 was dissolved in saline with the pH adjusted to 5.0 with sodium hydroxide (1 M). […].
(§3) Ex vivo stimulation of rat blood with L18-MDP for PD: PPD blood samples taken prior to PROTAC administration or at fixed timepoints post PROTAC administration through the course of the study, were treated ex vivo with 100 ng/mL L18-MDP (Invivogen) or vehicle (0.1% DMSO) and incubated for 4 h. Following centrifugation, plasma was collected for cytokines analysis as detailed in cytokines assay section. Additionally, RIPK2 levels were determined in PBMCs isolated from blood and where collected, in sampled colon tissue as described in the text.
Blood was mixed with optiPREP (Sigma) and following centrifugation at 1300 × g the PBMCs layer was collected. For in vivo studies, RIPK2 levels were determined immediately via immunoblotting, whereas for in vitro studies PBMCs were treated as detailed in the in vitro treatment section.
(§4) Statistics and reproducibility: All data were represented as percentage of the control sample: DMSO treated cells for the in vitro assays and the pre-dose or vehicle sample for the in vivo experiments.
For in vivo studies, RIPK2:tubulin ratios and cytokine levels from each individual experiment were analysed either using a One-way ANOVA with Dunnet’s post-test or a two way ANOVA using GraphPad Prism 5.0.4 to determine statistical significance with 95% confidence levels.

[2] = system: L18-MDP-stimulated TNFα release; experiment: TNFα after ex vivo L18-MDP stimulation of blood from dosed rats; type: in vivo, rat; parameters: key to TNFα after ex vivo L18-MDP stimulation: % of pre-dose or vehicle sample; details: for TNFα after ex vivo L18-MDP stimulation: fig 5b; for TNFa: fig 5e, individual rats 6-10, time 0 = 100; for TNFα inhibition (ex vivo L18-MDP): 0.05 mg/kg/day QD SC
Experimental: as §2, with “Male” for “Rat PK/PD studies: On arrival, all rats were housed in a plastic solid bottom cage in groups of 2–3 with access to food and water ad libitum and under a 12 h light–dark cycle. Male”
Subcutaneous PROTAC solution formulations were prepared on the day of dosing as outlined below and filtered through a 0.22 µm Millex PVDF filter (Millipore) prior to PROTAC administration. PROTAC 4 was dissolved in saline with the pH adjusted to 5.0 with sodium hydroxide (1 M).
as §3, §1, §4

SMILES: CN[C@@H](C)C(=O)N[C@H](C(=O)N1C[C@@H](NC(=O)c2cnc(N3CCN(CCCOc4cc5ncnc(Nc6n[nH]c(C)c6C)c5cc4S(=O)(=O)C(C)(C)C)CC3)cn2)C[C@H]1C(=O)Nc1c(F)cccc1F)C(C)(C)C [PROTAC 6]
- IC50 ([1]; 6 h, read-out: hPBMC MDP pIC50 ± SEM, 6 h (n = 3) (converted)): 0.501 nM
- IC50 ([1]; read-out: pIC50 IL1β release following L18-MDP-stimulation (converted)): < 1.58 nM
- IC50 ([1]; read-out: pIC50 IL-6 release following L18-MDP-stimulation (converted)): < 1.58 nM
- IC50 ([1]; read-out: pIC50 IL-10 release following L18-MDP-stimulation (converted)): < 1.58 nM
- IC50 ([1]; read-out: pIC50 TNFα release following L18-MDP-stimulation (converted)): < 1.58 nM
- RIPK2 level (time 0 = 100), unlabelled cell under rat 8 (RIPK2; 0.005 mg/kg, equals the mean of the four other rats at 24 h, fig 5a): 92.1904
- RIPK2 level (time 0 = 100) (RIPK2; 0.005 mg/kg, time 24 h, rats 6-10, fig 5a): 71.58 and 92.75 and 127.25 and 77.18
- RIPK2 level (time 0 = 100) (RIPK2; 0.005 mg/kg, time 48 h, rats 6-10, fig 5a): 107.66 and 189.11 and 139.36 and 104.71 and 114.34
- RIPK2 level (time 0 = 100) (RIPK2; 0.05 mg/kg, time 6 h, rats 11-15, fig 5a): 60.71 and 118.09 and 89.04 and 78.70 and 85.87
- RIPK2 level (time 0 = 100) (RIPK2; 0.05 mg/kg, time 24 h, rats 11-15, fig 5a): 70.75 and 59.91 and 86.01 and 67.12 and 70.61
- RIPK2 level (time 0 = 100) (RIPK2; 0.5 mg/kg, time 72 h, rats 16-20, fig 5a): 25.93 and 26.14 and 14.54 and 23.73 and 19.84
- RIPK2 (RIPK2; time 24 h): 41.32 and 46.91 and 38.86 and 44.83 and 39.94
- RIPK2 (RIPK2; time 72 h): 55.66 and 38.00 and 35.30 and 41.29 and 38.74
- RIPK2 degradation (RIPK2; rat, 0.05 mg/kg/day QD SC, last time point): > 70%
- RIPK2 degradation (RIPK2; rat, 0.5 mg/kg/day QD SC, 24 h): ~ 70%
- RIPK2 degradation (RIPK2; rat, 0.5 mg/kg/day QD SC, last time point after third dose): > 90%
- effect on RIPK2 levels, in words (RIPK2; rat, single 0.005 mg/kg SC): no significant effect
- effect on RIPK2 protein levels, in words (RIPK2; rat, single 0.05 mg/kg SC): did not have a statistically significant effect
- RIPK2 degradation (RIPK2; rat, single 0.5 mg/kg SC, 6 h post-dose): 53 ± 9%
- RIPK2 degradation (RIPK2; rat, single 0.5 mg/kg SC, 48 h): 78 ± 5%
- RIPK2 (time 0 = 100) (RIPK2; time 6 h): 85.25 and 86.14 and 86.72 and 88.07
- RIPK2 (time 0 = 100) (RIPK2; time 24 h): 71.45 and 57.80 and 52.77 and 57.74
- RIPK2 (time 0 = 100) (RIPK2; time 30 h): 42.20 and 43.44 and 40.14 and 48.21
- RIPK2 (time 0 = 100) (RIPK2; time 48 h): 32.57 and 27.38 and 24.98 and 36.77
- RIPK2 (time 0 = 100) (RIPK2; time 54 h): 24.47 and 24.71 and 23.45 and 32.20
- TNFα after ex vivo L18-MDP stimulation ([2]; 0.005 mg/kg, time 6 h, rats 6-10): 103.74 and 107.75 and 89.01 and 67.06 and 122.94
- TNFα after ex vivo L18-MDP stimulation ([2]; 0.005 mg/kg, time 96 h, rats 6-10): 59.51 and 62.83 and 97.91 and 70.36 and 61.76
- TNFα after ex vivo L18-MDP stimulation ([2]; 0.05 mg/kg, time 48 h, rats 11-15): 25.93 and 24.59 and 27.99 and 42.15 and 37.98
- TNFa ([2]; time 24 h): 0.86 and 0.61 and 0.92 and 2.90 and 3.38
- TNFa ([2]; time 72 h): 13.57 and 6.85 and 8.80 and 22.86
- cumulative PD effect, in words ([2]; rat, 0.05 mg/kg Q3D SC): failed to show this cumulative PD effect
- TNFα inhibition (ex vivo L18-MDP) ([2]; rat, 6 h post-dose): ~ 60%
- TNFα inhibition (ex vivo L18-MDP) ([2]; rat, 24 h post-dose): ~ 60%
- TNFα inhibition (ex vivo L18-MDP) ([2]; rat, 54 h (6 h after third dose)): > 90%
- inhibition of TNFα release (ex vivo L18-MDP) ([2]; rat, 0.5 mg/kg/day QD SC, 24 h): > 90%
- effect on TNFα levels, in words ([2]; rat, single 0.005 mg/kg SC): no significant effect
- inhibition of TNFα release upon ex vivo L18-MDP challenge ([2]; rat, single 0.05 mg/kg SC, first 48 h): > 60%
- inhibition of TNFα levels upon ex vivo whole blood L18-MDP challenge ([2]; rat, single 0.5 mg/kg SC, over the duration of the study (5 days)): > 70%
- TNFa (time 0 = 100) ([2]; time 72 h, rats 11-15, fig 5d): 91.60 and 114.81 and 76.37 and 83.72

— paper PMC7083851, “Extended pharmacodynamic responses observed upon PROTAC-mediated degradation of RIPK2” (Communications Biology, 2020)
